Structures are written as SMILES. Several values for one entry are separate records, joined by “and”; a condition that tells them apart may be missing. Identical values can stand only once. ± gives the expanded uncertainty stated by the source.

The conditions of this series: 313.15 K; Liquid.
Take `CC(C)OC(C)C` [diisopropyl ether]: the vapor or sublimation pressure (commonly the pressure of vapour in equilibrium with the condensed phase) was 37.1 ± 0.27 kPa and 37.14 ± 0.27 kPa and 37.12 ± 0.27 kPa.
For the compound `CCC(C)O` (stereo not drawn) [butan-2-ol], the “vapor or sublimation pressure” value is 6.062 ± 0.069 kPa [middle of 4 runs].
On to `c1ccccc1` [benzene], for which the “vapor or sublimation pressure” value was 24.39 ± 0.18 kPa and 24.38 ± 0.18 kPa and 24.4 ± 0.18 kPa.
